Holding throughout (format): cell-based
Assay [1] has as its system HER-2/neu transfected human breast cancer cell line (MCF/18). The experiment in a line: MTT tetrazolium dye assay, cell number after 3-day incubation, MCF/18. The conditions noted are these: MCF/18 cells. The protocol: (§1) Methods: The effect of combining the COX-2 inhibitor (SC 236) and zoledronic acid compared to either agent alone was tested in a HER-2/neu transfected human breast cancer cell line (MCF/18) and the control vector transfected line (MCF/neo). Cell number was determined after a 3-day incubation using the MTT tetrazolium dye assay.
(§2) Methods: The effect of combining the COX-2 inhibitor (SC236) with zoledronic acid and/or taxotere was tested in a HER-2/neu transfected human breast cancer cell line (MCF/18) and the control vector transfected line (MCF/neo). Cell number was determined after a 3-day incubation using the MTT tetrazolium dye assay.
In general terms: Tetrazolium dyes change colour on reduction, which living cells bring about.

Assay [2] deals with control vector transfected human breast cancer cell line (MCF/neo). Description: MTT tetrazolium dye assay, cell number after 3-day incubation, MCF/neo. The conditions noted are these: MCF/neo cells. The protocol: as §1, §2
Assay [3] relates to DU-145 human prostate carcinoma cell line. Description: MTT tetrazolium dye assay, cell number after 3 day treatment, DU-145. As to conditions: DU-145 cells. The protocol: Methods: The effect of combining the COX-2 inhibitor (SC236) and zoledronic acid compared to either agent alone was tested in the DU-145 human prostate carcinoma cell line. Cell number was determined after a 3 day treatment using the MTT tetrazolium dye assay.

The mark [4] stands for this setting: single agent 1-10 μM, 3-day incubation (Example 19).
Where [5] appears, read: single agent, concentration not given, 3-day incubation (Example 20).

A word on the inhibition: it is the percentage by which the read-out fell short of the control.

`NS(=O)(=O)c1ccc(-n2nc(C(F)(F)F)cc2-c2ccc(Cl)cc2)cc1` [SC236]: the growth inhibition was 15-41% in assay [1] (setting [4]), 18-53% in assay [2] (setting [4]), 40% in assay [3] (5 μM) and 0-77% in assay [3] (1-25 μM).

`O=P(O)(O)C(O)(Cn1ccnc1)P(=O)(O)O` [zoledronic acid, 2-(imidazol-1yl)-1-hydroxyethane-1,1-diphosphonic acid]: the growth inhibition in assay [1] (setting [4]) is listed as 9-53%; in assay [1] (setting [5]) it was 9%-53%; in assay [2] (setting [4]), 8-67%; in assay [2] (setting [5]) it was 18%-67%; in assay [3] (1-10 μM), 8-70%. The inhibition at 3 µM in assay [3] (Homo sapiens, 72 h, 3 μM, read-out: growth inhibition) was found to be 23%.

Values taken from patent publication US7345088B2, “Pharmaceutical composition for use for the treatment of malignancies comprising in combination a bisphosphonates, a cox-2 inhibitor and a taxol” (Penn State Research Foundation, priority 2001, dated 2008).
